Laboratory results: article PMC8305873, “Design and heterologous expression of a novel dimeric LL37 variant in Pichia pastoris” (Microbial Cell Factories, 2021)
Converted amounts (≈) assume the structure as drawn. Where two headings read alike, the source gives them in different places. Where a SMILES comes first, the peptide text is derived from it.

Assays:
[1] = tested on: S. epidermidis ATCC 12228; assay type: cell-based, Staphylococcus epidermidis; conditions: ATCC 12228
Description: (§1) All experiments were conducted at least three different times.

[2] = tested on: S. aureus ATCC 29213; assay type: cell-based, Staphylococcus aureus; conditions: ATCC 29213
Description: as §1

[3] = tested on: S. aureus ATCC 25923; assay type: cell-based, Staphylococcus aureus; conditions: ATCC 25923
Description: as §1

[4] = tested on: S. Typhimurium ATCC 14028; assay type: cell-based, Salmonella Typhimurium; conditions: ATCC 14028
Description: as §1

[5] = tested on: S. Typhimurium C 7731; assay type: cell-based, Salmonella Typhimurium; conditions: C 7731
Description: as §1

[6] = tested on: S. faecalis ATCC 29212; assay type: cell-based, Streptococcus faecalis; conditions: ATCC 29212
Description: as §1

[7] = tested on: E. coli ATCC 25922; assay type: cell-based, Escherichia coli; conditions: ATCC 25922
Description: as §1
The salt ions were added to the BSA solution and configured into different final concentrations of salt ions (150 mM NaCl, 4.5 mM KCl, 6 µM NH4Cl, 8 µM ZnCl2, 1 mM MgCl2, 2 mM CaCl2, and 4 µM FeCl3) solutions. The method discribed as above was referred to determine the MIC value of rLG against E. coli ATCC 25922 in the presence of different concentrations of salt ions.

[8] = tested on: P. aeruginosa ATCC 27853; assay type: cell-based, Pseudomonas aeruginosa; conditions: ATCC 27853
Description: as §1

[9] = tested on: E. coli ATCC 25922; assay type: cell-based, Escherichia coli; conditions: ATCC 25922; remark: listed apart in the source
[10] = tested on: E. coli UB 1005; assay type: cell-based, Escherichia coli
Description: as §1

[11] = tested on: E. coli ATCC 25922; assay type: cell-based, Escherichia coli; conditions: ATCC 25922; remark: listed apart in the source
Description: as §1

[12] = tested on: E. coli ATCC 078; assay type: cell-based, Escherichia coli; conditions: ATCC 078
Description: as §1

[13] = tested on: bacteria; conditions: when no antimicrobial activity is detected at 32 µM, 64 µM is used
Description: The minimum inhibitory concentration (MIC) is a vital indicator for evaluating the antimicrobial activity of AMPs. The determination method refers to the improved method of Dong et al.. The strains to be tested were inoculated in Mueller Hinton broth (MHB) medium and cultured at 200 rpm and 37 °C until the logarithmic growth phase, and then the number of colonies was adjusted to approximately 10^5 CFU/mL. The 95 µL of bovine serum albumin (BSA) diluent (0.01% acetic acid and 0.2% BSA) and 5 µL of peptide (1.28 mM) were added to the first row of the 96-well plate, and 50 µL of BSA diluent was added to the other columns. After mixing in the first row, 50 µL of the mixture was aspirated and added to the second column and so on to the 11th row. After being cultured at 37 °C for 18–24 h, the minimum peptide concentration required to inhibit bacterial growth was the MIC value. All experiments were conducted at least three different times.
The safety of peptides is usually assessed by hemolytic activity. The collected blood of type B from healthy donor was centrifuged at 1000×g for 5 min to collect red blood cells. The red blood cells were then washed and resuspended in 10 mM PBS (pH 7.4). Fifty microliters of diluted red blood cells and an equal volume of peptide solution (2–128 µM) were incubated in a 96-well plate at 37 °C for 1 h. The red blood cell suspension treated with 0.1% Triton X-100 was used as a positive control (100% hemolysis), and untreated blood cell suspension was used as a negative control. The 96-well plate was centrifuged at 1000×g for 5 min at 4 °C, and then the supernatant was transferred to a new 96-well plate. The absorbance at OD570 was measured with a microplate reader.

[14] = tested on: human red blood cells; assay: Hemolytic activity assay; assay type: cell-based; conditions: for MHC (minimum hemolysis concentration): concentration of peptide that causes 20% hemolysis, human red blood cells in 10 mM PBS pH 7.4, 37 °C 1 h, OD570

Compound | MIC [1] [µM] | MIC [2] [µM] | MIC [3] [µM] | MIC [4] [µM] | MIC [5] [µM] | MIC [6] [µM] | MIC [8] [µM] | MIC ([10]; UB 1005) [µM] | MIC [11] [µM] | MIC [12] [µM] | GM (geometric mean of the MIC value of the peptide against bacteria) [13] [µM] | MHC (minimum hemolysis concentration) [14] [µM] | other results
CC[C@H](C)[C@H](NC(=O)[C@H](CCCNC(=N)N)NC(=O)[C@H](CCC(N)=O)NC(=O)[C@@H](NC(=O)[C@@H](NC(=O)[C@H](CCCNC(=N)N)NC(=O)[C@H](CCCCN)NC(=O)[C@@H](N)Cc1ccccc1)[C@@H](C)CC)C(C)C)C(=O)N[C@@H](CCCCN)C(=O)N[C@@H](CCCNC(=N)N)C(=O)N[C@@H](Cc1ccccc1)C(=O)N[C@@H](CC(C)C)C(=O)N[C@@H](CCCNC(=N)N)C(=O)O [FR] (H-FKRIVQRIKRFLR-OH) | 3.78 ± 0.63 (≈ 6.65 µg/mL) | 8.00 ± 0.00 (≈ 14.1 µg/mL) | 16.00 ± 0.00 (≈ 28.2 µg/mL) | 8.00 ± 0.00 (≈ 14.1 µg/mL) | 8.00 ± 0.00 (≈ 14.1 µg/mL) | 4.00 ± 0.00 (≈ 7.04 µg/mL) | 16.00 ± 0.00 (≈ 28.2 µg/mL) | 2.44 ± 0.83 (≈ 4.29 µg/mL) | 7.11 ± 1.66 (≈ 12.5 µg/mL) | 8.00 ± 0.00 (≈ 14.1 µg/mL) | – | – | MIC under physiological salt concentration, CaCl2 [7]: > 32 µM; MIC under physiological salt concentration, FeCl3 [7]: 16 µM; MIC under physiological salt concentration, GM [7]: 19.50 µM; MIC under physiological salt concentration, KCl [7]: 8 µM; MIC under physiological salt concentration, MgCl2 [7]: 32 µM; MIC under physiological salt concentration, NH4Cl [7]: 8 µM; MIC under physiological salt concentration, NaCl [7]: > 32 µM; MIC under physiological salt concentration, ZnCl2 [7]: 8 µM; MIC, Control [9]: 8 µM (≈ 14.1 µg/mL)
CC[C@H](C)[C@H](NC(=O)[C@H](CCCNC(=N)N)NC(=O)[C@H](CCC(N)=O)NC(=O)[C@@H](NC(=O)[C@@H](NC(=O)[C@H](CCCNC(=N)N)NC(=O)[C@H](CCCCN)NC(=O)[C@H](Cc1ccccc1)NC(=O)[C@H](C)NC(=O)[C@H](CCCCN)NC(=O)[C@H](C)NC(=O)[C@H](C)NC(=O)[C@H](C)NC(=O)[C@H](CCC(=O)O)NC(=O)[C@H](C)NC(=O)[C@H](CCCNC(=N)N)NC(=O)[C@H](CC(C)C)NC(=O)[C@H](Cc1ccccc1)NC(=O)[C@H](CCCNC(=N)N)NC(=O)[C@H](CCCCN)NC(=O)[C@@H](NC(=O)[C@H](CCCNC(=N)N)NC(=O)[C@H](CCC(N)=O)NC(=O)[C@@H](NC(=O)[C@@H](NC(=O)[C@H](CCCNC(=N)N)NC(=O)[C@H](CCCCN)NC(=O)[C@@H](N)Cc1ccccc1)[C@@H](C)CC)C(C)C)[C@@H](C)CC)[C@@H](C)CC)C(C)C)C(=O)N[C@@H](CCCCN)C(=O)N[C@@H](CCCNC(=N)N)C(=O)N[C@@H](Cc1ccccc1)C(=O)N[C@@H](CC(C)C)C(=O)N[C@@H](CCCNC(=N)N)C(=O)O [LA] (H-FKRIVQRIKRFLRAEAAAKAFKRIVQRIKRFLR-OH) | > 32 | > 32 | > 32 | 4.44 ± 1.25 (≈ 18.3 µg/mL) | 1.11 ± 0.31 (≈ 4.57 µg/mL) | > 32 | 4.44 ± 1.25 (≈ 18.3 µg/mL) | 1.11 ± 0.31 (≈ 4.57 µg/mL) | 2.22 ± 0.63 (≈ 9.14 µg/mL) | 2.44 ± 0.83 (≈ 10 µg/mL) | 8.00 | 32 | –
CC[C@H](C)[C@H](NC(=O)[C@H](CCCNC(=N)N)NC(=O)[C@H](CCC(N)=O)NC(=O)[C@@H](NC(=O)[C@@H](NC(=O)[C@H](CCCNC(=N)N)NC(=O)[C@H](CCCCN)NC(=O)[C@@H](N)Cc1ccccc1)[C@@H](C)CC)C(C)C)C(=O)N[C@@H](CCCCN)C(=O)N[C@@H](CC(=O)O)C(=O)N[C@@H](Cc1ccccc1)C(=O)N[C@@H](CC(C)C)C(=O)N[C@@H](CCCNC(=N)N)C(=O)O [FD] (H-FKRIVQRIKDFLR-OH) | > 32 | > 32 | > 32 | 32.00 ± 0.00 (≈ 55 µg/mL) | 32.00 ± 0.00 (≈ 55 µg/mL) | > 32 | > 32 | 16.00 ± 0.00 (≈ 27.5 µg/mL) | 32.00 ± 0.00 (≈ 55 µg/mL) | 16.00 ± 0.00 (≈ 27.5 µg/mL) | – | – | –
CC[C@H](C)[C@H](NC(=O)[C@H](CCCNC(=N)N)NC(=O)[C@H](CCC(N)=O)NC(=O)[C@@H](NC(=O)[C@@H](NC(=O)[C@H](CCCNC(=N)N)NC(=O)[C@H](CCCCN)NC(=O)[C@H](Cc1ccccc1)NC(=O)[C@H](CCCNC(=N)N)NC(=O)[C@H](CC(C)C)NC(=O)[C@H](Cc1ccccc1)NC(=O)[C@H](CCCNC(=N)N)NC(=O)[C@H](CCCCN)NC(=O)[C@@H](NC(=O)[C@H](CCCNC(=N)N)NC(=O)[C@H](CCC(N)=O)NC(=O)[C@@H](NC(=O)[C@@H](NC(=O)[C@H](CCCNC(=N)N)NC(=O)[C@H](CCCCN)NC(=O)[C@@H](N)Cc1ccccc1)[C@@H](C)CC)C(C)C)[C@@H](C)CC)[C@@H](C)CC)C(C)C)C(=O)N[C@@H](CCCCN)C(=O)N[C@@H](CCCNC(=N)N)C(=O)N[C@@H](Cc1ccccc1)C(=O)N[C@@H](CC(C)C)C(=O)N[C@@H](CCCNC(=N)N)C(=O)O [(FR)2] (H-FKRIVQRIKRFLRFKRIVQRIKRFLR-OH) | 2.00 ± 0.00 (≈ 7 µg/mL) | 2.00 ± 0.00 (≈ 7 µg/mL) | 3.78 ± 0.63 (≈ 13.2 µg/mL) | 2.22 ± 0.63 (≈ 7.78 µg/mL) | 1.11 ± 0.31 (≈ 3.89 µg/mL) | 2.00 ± 0.00 (≈ 7 µg/mL) | 2.22 ± 0.63 (≈ 7.78 µg/mL) | 1.00 ± 0.00 (≈ 3.5 µg/mL) | 1.22 ± 0.41 (≈ 4.27 µg/mL) | 1.11 ± 0.31 (≈ 3.89 µg/mL) | 1.62 | 16 | hemolysis (blood cells destroyed) ([14]; at the highest peptide concentration (128 μM), human red blood cells, 37 °C 1 h, 0.1% Triton X-100 = 100%): approximately 43%
CC[C@H](C)[C@H](NC(=O)[C@H](CCCNC(=N)N)NC(=O)[C@H](CCC(N)=O)NC(=O)[C@@H](NC(=O)[C@@H](NC(=O)[C@H](CCCNC(=N)N)NC(=O)[C@H](CCCCN)NC(=O)[C@H](Cc1ccccc1)NC(=O)[C@H](CO)NC(=O)CNC(=O)CNC(=O)CNC(=O)CNC(=O)[C@H](CCCNC(=N)N)NC(=O)[C@H](CC(C)C)NC(=O)[C@H](Cc1ccccc1)NC(=O)[C@H](CCCNC(=N)N)NC(=O)[C@H](CCCCN)NC(=O)[C@@H](NC(=O)[C@H](CCCNC(=N)N)NC(=O)[C@H](CCC(N)=O)NC(=O)[C@@H](NC(=O)[C@@H](NC(=O)[C@H](CCCNC(=N)N)NC(=O)[C@H](CCCCN)NC(=O)[C@@H](N)Cc1ccccc1)[C@@H](C)CC)C(C)C)[C@@H](C)CC)[C@@H](C)CC)C(C)C)C(=O)N[C@@H](CCCCN)C(=O)N[C@@H](CCCNC(=N)N)C(=O)N[C@@H](Cc1ccccc1)C(=O)N[C@@H](CC(C)C)C(=O)N[C@@H](CCCNC(=N)N)C(=O)O [LG] (H-FKRIVQRIKRFLRGGGGSFKRIVQRIKRFLR-OH) | – | – | – | – | – | – | – | 1.22 ± 0.41 (≈ 4.66 µg/mL) | – | – | 2.00 | 64 | MIC ([10]; Table 3, recombinant vs synthetic LG, mean ± SD of three independent experiments): 1.33 ± 0.25 µM
